Results: patent US12297296B2, “Nano small peptide and its use in preparation of drugs for treating and preventing fundus vascular diseases” (FUTU Biotech Co., Ltd., priority 2021, dated 2025)
Where a SMILES comes first, the peptide text is derived from it. [ ]: non-standard residue; d: D form. The star is where a group is joined. ξ: configuration not given here. Palmitoyl = CCCCCCCCCCCCCCCC(=O)*; ξF = NC(Cc1ccccc1)C(=O)O

Key:
[1] = system: mouse brain microvascular endothelial cells; experiment: Endothelial cell leakage (transmembrane resistance); format: cell-based; conditions: 20 μM, 36 h; for sSema4D-induced endothelial cell leakage: sSema4D 1600 ng/mL
Method: A layer of fibronectin was first applied to coat the upper layer of a 24-well transwell chamber (0.4 um) and incubated at room temperature for 1 h; after coating, the mouse brain microvascular endothelial cells were seeded, and cultured for 5 days until the cells were full, and then FH (20 μM), FG (20 μM), and Sema4D neutralizing antibody (BMA-12) (2 μg/μL) were added to the medium (the concentration of sSema4D in the medium was 1600 ng/mL), respectively. An equal volume of DMSO was added as a control, and ECM was used as a blank control. After incubation for 36 h, the resistance value was measured by a cell transmembrane resistance measuring instrument.

[2] = In vivo imaging of small animals, entry into vitreous humor; parameters: species or system mouse; conditions: eye drops (10 μL, 20 μM, three times at 1 h intervals) and vitreous injection (1 μl, 20 μM)
Method: 10 μL of FH and FG eye drops (with the concentration of 20 μM, the solvent therein was artificial tears) were instilled on the eyeball surface of mice (8-week-old C57 male mice), once at an interval of 1 h. One hour after the third eye drop, the mice were anesthetized to have cardiac perfusion, the eyeballs of the mice were taken out, the connective tissue on the eye surface was trimmed, and the eyeballs were washed with PBS solution for several times to remove the nano eye drops from the surface of the eyeballs. The eyeball was placed in a small animal imager (at emission wavelength of 535 nm and excitation wavelength of 490 nm) for image acquisition.
Mice (8-week-old C57 male mice) were anesthetized with 4.3% chloral hydrate (0.01 ml/g), and antibiotic eye drops (levofloxacin eye drops), ocular surface anesthetics (Obucaine hydrochloride eye drops) were instilled before the surgery. The head position of the mouse was adjusted to keep the eyeball at the level of the corneal limbus. A small incision was made 1 mm behind the corneal limbus with an insulin injection needle, and 1 μl of nanomedicine FH (20 μM, FG (20 μM) or solvent was injected into the vitreous cavity along the small incision with a Hamilton 33 G syringe); the needle tip entered vertically and then tilted, and after pushing, the needle was retained for 0.5 to 1 min, and the needle was then pulled out quickly. […]

[3] = system: primary mouse brain microvascular pericytes; experiment: Pericyte migration (transwell experiment); format: cell-based; conditions: 20 μM, 36 h; for sSema4D-induced pericyte migration: sSema4D 1600 ng/mL
Method: The primary mouse brain microvascular pericytes were starved with 0.5% PM for 4 to 6 h. The pericytes were seeded in the upper layer of a 24-well transwell chamber (8 μm). The medium containing FH (20 μM), FG (20 μM), and Sema4D neutralizing antibody (BMA-12) (2 μg/μL) (the concentration of sSema4D in the medium is 1600 ng/mL) was added to the lower chamber, and an equal volume of DMSO was added as control. The cells were incubated in a 5% CO2 incubator at 37° C. for 36 h. 36 h later, the cells on the bottom of the chamber were fixed with 4% paraformaldehyde and stained with crystal violet, and the pericytes that penetrated to the bottom of the chamber were counted under a microscope.

[4] = DLS particle size and zeta potential of nanoparticles; format: physicochemical; conditions: zeta sizer, 25° C.
Method: (§1) First, FG and FH nanoparticle solutions with a concentration of 20 μM were prepared as follows. 0.01 mmol of FG (or FH) was weighed and dissolved in 1 mL of DMSO solution, and then diluted into 5 folds to a concentration of 2 mM, thus obtaining mother solution A. 10 μL of mother solution A was quickly added to 1 mL of water, and the resulting solution was then vortexed for 30 s to obtain a nanoparticle solution. Second, samples were made. 10 ul of FG (or FH) solution was added dropwise onto a copper mesh for 5 min, and the excess solution was removed with filter paper. 10 μL of uranyl acetate stain was added dropwise for 5 min, and the excess stain was removed with filter paper. Washing with 10 μl of deionized water was carried out once. The samples were dried in vacuum overnight. Finally, transmission electron microscopy observations were performed on an HT-7700 transmission electron microscope (Hitachi, Tokyo, Japan). Scale bar was 200 nm.
The particle size and zeta potential of FH and FG nanoparticles were measured with a zeta sizer (Nano ZZ90, Malvern, UK) at 25° C.

[5] = system: OIR model mice; experiment: Evans blue leakage test, fundus vascular leakage; format: in vivo, mouse; conditions: 2 nmol intravitreal
[6] = target: T1, sSema4D (Mus musculus, UniProt O09126); experiment: sSema4D concentration in endothelial cell culture supernatant (ELISA); format: cell-based; parameters: the free Sema4D protein after enzyme cleavage of Sema4D, that is, the sSema4D protein purchased from R&D Systems Company; purchased R&D Systems; conditions: endothelial cells; for sSema4D concentration over the time course: 20 μM, 12, 24, 36, and 48 h; for sSema4D concentration: sSema4D 1600 ng/mL, peptide 20 μM, antibody 2 μg/μL
T1 sequence (O09126 24-733 limits assumed): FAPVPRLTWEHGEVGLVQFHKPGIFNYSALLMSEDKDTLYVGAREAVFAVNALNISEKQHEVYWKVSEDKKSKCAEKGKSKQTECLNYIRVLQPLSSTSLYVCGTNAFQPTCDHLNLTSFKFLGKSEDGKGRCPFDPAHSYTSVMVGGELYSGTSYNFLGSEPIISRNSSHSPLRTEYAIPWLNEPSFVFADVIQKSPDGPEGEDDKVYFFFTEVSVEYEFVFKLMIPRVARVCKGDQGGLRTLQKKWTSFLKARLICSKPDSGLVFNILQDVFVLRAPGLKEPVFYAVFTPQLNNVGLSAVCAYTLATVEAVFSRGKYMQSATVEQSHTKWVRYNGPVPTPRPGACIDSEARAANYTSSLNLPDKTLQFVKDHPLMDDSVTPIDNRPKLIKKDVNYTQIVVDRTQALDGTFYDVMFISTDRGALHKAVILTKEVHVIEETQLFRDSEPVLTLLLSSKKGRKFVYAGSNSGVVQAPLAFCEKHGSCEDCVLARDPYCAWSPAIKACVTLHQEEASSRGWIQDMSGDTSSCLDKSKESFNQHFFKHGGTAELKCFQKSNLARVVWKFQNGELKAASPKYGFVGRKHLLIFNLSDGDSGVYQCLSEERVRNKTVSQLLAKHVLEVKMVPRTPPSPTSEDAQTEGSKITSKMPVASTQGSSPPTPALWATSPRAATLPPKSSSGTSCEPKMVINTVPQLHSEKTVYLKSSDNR
Method: Endothelial cells were uniformly seeded in 6-well cell culture plates and cultured in a 5% CO2 incubator at 37° C. for 24 h. The nano small peptides FH, FG, DMSO, and Sema4D neutralizing antibody (BMA-12) were added to the medium (the concentration of sSema4D in the medium was 1600 ng/mL) to ensure that the final concentration of FH and FG was 20 μM, and the final concentration of the sSema4D neutralizing antibody (BMA-12) was 2 μg/μL, an equal volume of DMSO was then added as a control, and the culture plates were cultured in an incubator for 12, 24, 36, and 48 h, respectively. The cell culture medium was then collected and centrifuged. The supernatant was taken and the expression of Sema4D protein in the supernatant was detected using an ELISA kit (Shanghai Yuanmu Biotechnology Co., Ltd.).

[7] = target: T1, sSema4D; experiment: CD spectra of nanoparticles before and after induction by sSema4D protein; format: physicochemical; parameters: the free Sema4D protein after enzyme cleavage of Sema4D, that is, the sSema4D protein purchased from R&D Systems Company; purchased R&D Systems; conditions: 20 μM; for CD secondary structure before induction by sSema4D protein: H2O containing 0.5% dimethyl sulfoxide, signal at 200 nm negative; for CD secondary structure after induction by sSema4D protein: signal at 200 nm positive, negative signal at 220 nm
Method: as §1
The CD spectra of FH and FG nanoparticles (20 μM) were collected at room temperature using a CD spectrometer (JASCO-1500, Tokyo, Japan) with an optical path length of 1 mm. Measurements were performed between 190 nm and 300 nm with a resolution of 1.0 nm at a scan speed of 300 nm/min. For each measurement, three spectra were collected and averaged.

| Structure (SMILES) | effect on endothelial cell leakage compared with Sema4D neutralizing antibody (BMA-12, 2 μg/μL) [1] | sSema4D-induced endothelial cell leakage [1] | entry into the vitreous humor of mice [2] | inhibition of pericyte migration compared with Sema4D neutralizing antibody (BMA-12, 2 μg/μL) [3] | sSema4D-induced pericyte migration [3] | charge (zeta potential) [4] | particle diameter [4] [nm] | treatment effect on fundus vascular leakage compared with anti-Sema4D (1 μg) [5] | vascular leakage of the fundus [5] | sSema4D concentration over the time course [6] | sSema4D concentration ([6]; 24 h) | sSema4D concentration ([6]; 36 h) | effect on sSema4D concentration compared with FG ([6]; within the same action time) | CD secondary structure before induction by sSema4D protein [7] | CD secondary structure after induction by sSema4D protein [7] |
| --- | --- | --- | --- | --- | --- | --- | --- | --- | --- | --- | --- | --- | --- | --- | --- |
| CCCCCCCCCCCCCCCC(=O)NC(Cc1ccccc1)C(=O)N[C@@H](Cc1ccccc1)C(=O)N[C@H](C(=O)N[C@@H](CC(C)C)C(=O)N[C@@H](CCCCN)C(=O)N[C@@H](CCCCN)C(=O)N[C@@H](CCC(N)=O)C(=O)N[C@@H](CCCCN)C(=O)N[C@@H](CCCNC(=N)N)C(=O)N1CCC[C@H]1C(=O)N[C@@H](CCCNC(=N)N)C(=O)N[C@@H](Cc1c[nH]cn1)C(=O)O)C(C)C (stereo in doubt) [FH, hexadecanoyl-FFVLK-KQKRPRH] | comparable | significantly inhibit | entered the vitreous humor | more effective | significantly inhibit | +40.4 mV | 54.43±2.8 | comparable | can inhibit vascular leakage of the fundus | can sustainably reduce the concentration of sSema4D | can reduce the sSema4D concentration | can still reduce the sSema4D concentration | better than that of FG | random coil structure | transition to a β-sheet folded structure |
| CCCCCCCCCCCCCCCC(=O)NC(Cc1ccccc1)C(=O)N[C@@H](Cc1ccccc1)C(=O)N[C@H](C(=O)N[C@@H](CC(C)C)C(=O)N[C@@H](CCCCN)C(=O)N[C@@H](CCCCN)C(=O)N[C@@H](CC(N)=O)C(=O)N[C@@H](CCCCN)C(=O)N[C@@H](C)C(=O)N[C@@H](C)C(=O)N[C@@H](CCCCN)C(=O)NCC(=O)O)C(C)C (some centres unmarked) [FG] (Palmitoyl-[ξF]FVLKKNKAAKG-OH) | comparable | significantly inhibit | entered the vitreous humor | – | significantly inhibit | +44.8 mV | 57.67±2.6 | comparable | can inhibit vascular leakage of the fundus | can sustainably reduce the concentration of sSema4D | – | – | – | random coil structure | transition to a β-sheet folded structure |
